{"source": "patent US6562828B1", "about": "“Amidine compounds” (Japan Tobacco Inc., priority 1998, dated 2003)", "key": {"Human FXa [1]": {"target": "T1, Human FXa (Homo sapiens, UniProt P00742)", "T1 construct": "Human FXa [Enzyme research Laboratories (USA)] enzyme; purchased Enzyme Research Laboratories (USA)", "assay": "Determination of anti-factor Xa (FXa) activity, synthetic substrate S-2222", "type": "biochemical", "settings": "S-2222, 37° C., pH 8.4, read-out: Experimental Example 1: anti-FXa activity, IC50", "protocol": "Determination of Anti-factor Xa (FXa) Activity\nHuman FXa [Enzyme research Laboratories (USA)] enzyme (40 μl, 0.16U/ml) and test compounds (40 l) adjusted to various concentrations were incubated in 0.1M Tris (Tris-hydroxymethyl-aminomethane) buffer (pH 8.4) containing 0.2M sodium chloride (herein to be referred to as 0.1 M tris-0.2M NaCl buffer) (40 μl) at 37° C. for 10 min. A synthetic substrate S-2222 (Daiichi Pure Chemical (Tokyo, Japan), 40 μl) adjusted to 0.8 mM was added and the mixture was incubated at 37° C. for 10 min. The reaction was stopped by addition of 60% acetic acid (40 μl) and absorbance at 405 nm was measured by Model 3550 (BIO-RAD). For the control, the solvent was used instead of the test compound."}, "Human FIIa": {"target": "T2, Human FIIa (Homo sapiens, UniProt P00734)", "T2 construct": "purchased Sigma", "assay": "Determination of anti-factor IIa (FIIa) activity, synthetic substrate S-2238", "type": "biochemical", "settings": "S-2238, 37° C., pH 8.4, read-out: Experimental Example 2: anti-FIIa activity, IC50"}, "normal plasma [2]": {"system": "normal plasma", "assay": "Determination of prothrombin time (PT), mouse plasma", "type": "biochemical", "protocol": "(§1) Determination of prothrombin time (PT)\n(§2) Blood was taken from mouse, rat, crab-eating monkey and healthy human volunteers, and citric acid was added. The blood was centrifuged at 4° C. and 2000 G for 15 min to obtain normal plasma of various animals.\n(§3) Purified water (5 μl) containing various concentrations of test compound was added to plasma (45 μl) and the resultant mixtures were used as samples. […] (Baxter) was prepared and heated at […] for 5 min, and a sample (50 μl) was admixed with the thrombin reagent (100 μl). The time (PT) until precipitation of fibrin was measured. The drug concentration that doubled the PT hours of the drug untreated group was calculated and taken as CT2."}, "normal plasma [3]": {"system": "normal plasma", "assay": "Determination of prothrombin time (PT), human plasma", "type": "biochemical", "protocol": "as §1, §2, §3"}, "Human FXa [4]": {"target": "T1, Human FXa", "assay": "Intravenous administration test in mouse, human FXa inhibitory activity in serum", "type": "in vivo", "settings": "ICR mice, i.v., mean ± S.D., n = 3", "protocol": "Intravenous Administration Tests in Mouse\nA test compound dissolved in physiological saline was intravenously administered to ICR mice (body weight 20-30 g, 4-6 weeks old) and the activity of the test compound was evaluated based on the human FXa inhibitory activity in serum as an indicator.\nAt 10, 30, 60, 120 min from the intravenous administration, blood was taken from the eye ground using a hematocrit tube. The blood was centrifuged at 9000 G for 5 min and the obtained serum was used for the determination.\n(§4) Human FXa inhibitory activity was measured as follows. Human FXa [Enzyme research Laboratories (USA)] enzyme (40 μl, 0.5 U/ml) and a 4-fold diluted plasma sample (40 μl) were incubated in 0.1M Tris-0.2M NaCl buffer (pH 8.4) (40 μl) at 37° C. for 10 min. A synthetic substrate S-2222 (Daiichi Pure Chemical (Tokyo, Japan), 40 μl) adjusted to 0.8 mM was added and the mixture was incubated at 37° C. for 5 min. The reaction was stopped by addition of 60% acetic acid (40 μl) and absorbance at 405 nm was measured by Model 3550 (BIO-RAD). For the control, serum or plasma obtained prior to blood sampling was used for measurement. Human FXa inhibitory activity was calculated as inhibition percentage (%) against control."}, "Human FXa [5]": {"target": "T1, Human FXa", "assay": "Intravenous administration test in monkey, human FXa inhibitory activity in plasma", "type": "in vivo", "settings": "crab-eating monkey, i.v., mean ± S.D., n = 3", "protocol": "as §4\nIntravenous Administration Tests in Monkey\nA test compound dissolved in physiological saline was intravenously administered to monkey (crab-eating monkey, body weight 3.5-4.5 kg) and the activity of the test compound was evaluated based on the human FXa inhibitory activity in plasma as an indicator.\nAt 10, 30, 60, 120, 180 min from the intravenous administration, blood was taken from the saphenous vein with the passage of time and the blood was centrifuged at 2000 G for 10 min. The obtained citric acid plasma was used for the determination. Human FXa inhibitory activity was determined in the same manner as in the test using mouse."}, "Human FXa [6]": {"target": "T1, Human FXa", "assay": "Oral administration test in mouse, human FXa inhibitory activity in serum", "type": "in vivo", "settings": "ICR mice, mean ± S.D., n = 3", "protocol": "as §4\nOral Administration Tests in Mouse\nA test compound dissolved in distilled water was orally administered to ICR mice (body weight 20-30 g, 4-6 weeks old) and the activity of the test compound was evaluated based on the human FXa inhibitory activity in serum as an indicator.\nAt 30, 60, 120, 180 min from the oral administration, blood was taken from the eye ground using a hematocrit tube. The blood was centrifuged at 9000 G for 5 min and the obtained serum was used for the determination. Human FXa inhibitory activity was determined in the same manner as in the test by intravenous administration."}, "[7]": {"system": "decrease of platelets and formation of FDP by thromboplastin", "assay": "Blood coagulation model in rat (thromboplastin)", "type": "in vivo", "settings": "i.v. 10 min before thromboplastin, mean ± S.D, n = 3; for PLT value: counted 10 min later; for FDP value: measured 30 min later", "protocol": "Blood Coagulation Model in Rat\nIntravenous administration of thromboplastin (Sigma) to rat promotes coagulation system, which in turn decreases platelets and increases fibrin degradation product (FDP). Thus, the test compound was intravenously administered 10 min before thromboplastin administration and the inhibitory effects of the test compound on the decrease of platelets and the formation of FDP by thromboplastin were studied. The thromboplastin administered had such concentration as to form clots within 20 seconds from the addition of one plasma dose to two thromboplastin doses and was administered in 1 ml/kg dose. Platelets were counted (PLT value) 10 min later on a blood cell counter sysmex F-800 [Dade International Inc. (USA)], and FDP was measured 30 min later using FDP latex reagent for serum [Teikoku Hormone Mfg. Co., Ltd. (Tokyo, Japan)]. In every Example, the PLT value of the thromboplastin untreated group was (106±13)×10^4 and the FDP value of this group was 0±0 μg/ml."}}, "note": "Counter-ions that a name gives are not always drawn.", "data": [{"smiles": "CC(=N)N1CCC(Oc2ccc(N(Cc3nc4cc(C(=N)N)ccc4n3CC(=O)N[C@@H](C)c3ccccc3)C(=O)c3ccc(C(=O)O)cc3)cc2)CC1", "note": "[Example 17, (S)-4-[N-[5-Amidino-1-(1-phenylethylcarbamoylmethyl)benzimidazole-2-ylmethyl]-N-[4-(1-acetimidoylpiperidin-4-yloxy)phenyl]carbamoyl]benzoic Acid Dihydrochloride]", "values": [{"measurement": "IC50", "setting": "Human FXa [1]", "result": 3, "unit": "nM"}, {"measurement": "IC50", "setting": "Human FIIa", "result": "> 10000", "unit": "nM"}, {"measurement": "CT2 (drug concentration that doubled the PT)", "setting": "normal plasma [2]", "result": 2, "unit": "µM"}, {"measurement": "CT2 (drug concentration that doubled the PT)", "setting": "normal plasma [3]", "result": 0.5, "unit": "µM"}, {"measurement": "inhibition at 0.1 mg/kg", "setting": "Human FXa [4]; 10 minutes", "result": "31 ± 3", "unit": "%"}, {"measurement": "inhibition at 0.1 mg/kg", "setting": "Human FXa [4]; 30 minutes", "result": "10 ± 3", "unit": "%"}, {"measurement": "inhibition at 0.1 mg/kg", "setting": "Human FXa [4]; 60 minutes", "result": 0, "unit": "%"}, {"measurement": "inhibition at 0.1 mg/kg", "setting": "Human FXa [4]; 120 minutes", "result": 0, "unit": "%"}, {"measurement": "inhibition at 0.3 mg/kg", "setting": "Human FXa [4]; 10 minutes", "result": "65 ± 1", "unit": "%"}, {"measurement": "inhibition at 0.3 mg/kg", "setting": "Human FXa [4]; 30 minutes", "result": "38 ± 5", "unit": "%"}, {"measurement": "inhibition at 0.3 mg/kg", "setting": "Human FXa [4]; 60 minutes", "result": "16 ± 3", "unit": "%"}, {"measurement": "inhibition at 0.3 mg/kg", "setting": "Human FXa [4]; 120 minutes", "result": "8 ± 4", "unit": "%"}, {"measurement": "inhibition at 1 mg/kg", "setting": "Human FXa [4]; 10 minutes", "result": "70 ± 1", "unit": "%"}, {"measurement": "inhibition at 1 mg/kg", "setting": "Human FXa [4]; 30 minutes", "result": "69 ± 2", "unit": "%"}, {"measurement": "inhibition at 1 mg/kg", "setting": "Human FXa [4]; 60 minutes", "result": "41 ± 10", "unit": "%"}, {"measurement": "inhibition at 1 mg/kg", "setting": "Human FXa [4]; 120 minutes", "result": "1 ± 3", "unit": "%"}, {"measurement": "inhibition at 1 mg/kg", "setting": "Human FXa [5]; 10 minutes", "result": "90 ± 6", "unit": "%"}, {"measurement": "inhibition at 1 mg/kg", "setting": "Human FXa [5]; 30 minutes", "result": "90 ± 1", "unit": "%"}, {"measurement": "inhibition at 1 mg/kg", "setting": "Human FXa [5]; 60 minutes", "result": "86 ± 2", "unit": "%"}, {"measurement": "inhibition at 1 mg/kg", "setting": "Human FXa [5]; 120 minutes", "result": "77 ± 6", "unit": "%"}, {"measurement": "inhibition at 1 mg/kg", "setting": "Human FXa [5]; 180 minutes", "result": "65 ± 12", "unit": "%"}, {"measurement": "inhibition at 10 mg/kg", "setting": "Human FXa [6]; 30 minutes", "result": "46 ± 3", "unit": "%"}, {"measurement": "inhibition at 10 mg/kg", "setting": "Human FXa [6]; 60 minutes", "result": "34 ± 7", "unit": "%"}, {"measurement": "inhibition at 10 mg/kg", "setting": "Human FXa [6]; 120 minutes", "result": 20, "unit": "%"}, {"measurement": "inhibition at 10 mg/kg", "setting": "Human FXa [6]; 180 minutes", "result": "21 ± 5", "unit": "%"}, {"measurement": "PLT value", "setting": "[7]; dose 0.01 mg/kg", "result": "41 ± 13 ×10^4 blood platelet/μl"}, {"measurement": "FDP value", "setting": "[7]; dose 0.01 mg/kg", "result": "6 ± 3", "unit": "µg/mL"}, {"measurement": "PLT value", "setting": "[7]; dose 0.03 mg/kg", "result": "92 ± 11 ×10^4 blood platelet/μl"}, {"measurement": "FDP value", "setting": "[7]; dose 0.03 mg/kg", "result": "1 ± 1", "unit": "µg/mL"}, {"measurement": "PLT value", "setting": "[7]; dose 1 mg/kg", "result": "108 ± 6 ×10^4 blood platelet/μl"}, {"measurement": "FDP value", "setting": "[7]; dose 1 mg/kg", "result": "0 ± 0", "unit": "µg/mL"}]}]}
